Tested on: human skin fibroblasts
Assay: Collagen synthesis by human skin fibroblasts (3H-proline incorporation into collagenous protein)
Format: cell-based
Settings: carnosine alone 60 mM, 48 h (FIG. 1 column 11)
Experimental: After starving for up to 6 hours, cells were exposed to a mixture of BMF and carnosine or the appropriate controls for 48 hours. Tritiated proline (L-[5-^3H] proline) was included in the culture medium and at the end of the experiments, the amount of ^3H proline incorporated into collagenous protein was determined as an index of collagen synthesis. A subset of cultures were treated with […] for the final 6-8 hours of the culture to determine the collagen-specific nature of incorporated radioactivity.
Human diploid ftbroblasts were obtained from neonatal foreskins collected from the Womens' and Chldrens' Hospital (North Adelaide, Australia). […]
Collagen was purified from the culture medium by successive precipitation with salt solutions at acid and neutral pH. […] The amount of radioactivity in the samples was determined using a Stcinillation counter (Wailac) as an index of the amount of new collagen synthesised. The radioactivity in each replicate well was normalised as a percentage of the average radioactivity present in the control wells from each experiment. […]

## NCCC(=O)N[C@@H](Cc1c[nH]cn1)C(=O)O [Carnosine, beta-alanyl-L-histidine]
  collagen synthesis: did not stimulate collagen synthesis

— US20070275084A1, “Compositions And Methods For The Treatment Of Skin Damage” (priority 2003, published 2007)
